Experimental data reported in patent US20140088144A1, “INHIBITING MICROBIAL INFECTIONS” (THE UNIVERSITY OF KANSAS, priority 2012, published 2014).

Experiments:
Rns = Rns (Escherichia coli, UniProt P16114); assay: In vivo activation by Rns (promoter-lacZ fusion); format: cell-based, Enterotoxigenic E. coli; details: compared with full-length RhaS
Text: Expression of promoter-lacZ fusions regulated by the indicated activators, or the control Lad regulated fusion at the indicated concentrations of Compound 1. Average of three independent experiments, with two replicates in each experiment.
The compounds of the invention can be used for inhibition of virulence in vivo and in vitro activation by Rns and VirF.

ipaB = assay: Shigella gene expression qRT-PCR, ipaB; format: cell-based, S. flexneri; details: for Average ΔΔCt / Ct / RQ (2^−ΔΔCt) / ΔΔCt^1 (normalized to gapA) / ΔΔCt^2 (normalized to rrsA): ipaB, example data
Method: (§1) Real-time quantitative reverse transcription PCR (qRT-PCR) was performed to test the effects of SE-1 on the expression of the VirF regulated genes virB, icsA, icsB and ipaB. The gapA and rrsA transcripts were used as internal controls. These are constitutively expressed Shigella genes commonly used to normalize mRNA levels. S. flexneri strain SME4331, which carries a null mutation in ipgD (ipgD), was grown at 30° C. overnight in TSB with ampicillin, diluted into the same medium to an OD600 of ˜0.1, and 1 ml aliquots further grown at 30° C. (DMSO only) or at 37° C. (SE-1 at 20 or 40 μM, or DMSO only, all 0.3% DMSO). Cells were grown to an OD600 of 1.0 (˜2.5 h) and RNA was isolated using an RNeasy MiniElute Cleanup Kit (Qiagen, Germantown, Md.), with DNA contamination eliminated using a Turbo DNase Kit (Ambion, Austin, Tex.). Complementary DNA (cDNA) was synthesized by random priming using a cDNA Reverse Transcription Kit (Applied Biosystems, Foster City, Calif.). Primers were tested for PCR specificity using genomic DNA template to ensure a single amplicon of the expected size for each primer pair, and validated using 5-fold dilutions of cDNA (2000 to 0.0256 ng) to ensure a linear plot of cycle threshold (Ct) versus cDNA concentration. Validated primer sets were used to test mRNA profiles in reactions that contained 10 ng of cDNA, 10 μl of SYBR green master mix (Applied Biosystems), specific primers (0.5 μM each) and water to a final volume of 20 μl, using a Step One Plus Real-Time PCR System (Applied Biosystems). The data was analyzed using the 2^−ΔΔCt method, and also by Applied Biosystems real-time analysis software. […] In brief, ΔΔCt values [ΔΔCt=(Ct,Target−Ct,Internal Control)SE-1−(Ct,Target−Ct,Internal Control)no SE-1] were separately obtained for each sample relative to two internal controls, gapA and rrsA. The ΔΔCt values relative to the two internal controls for each sample were averaged and then used to calculate the relative expression levels (2^−ΔΔCt). As a control, we also normalized each internal control to the other internal control. Control reactions used templates generated without reverse transcriptase to ensure low genomic DNA contamination. To ensure that products were not likely to be due to primer dimer artifacts, additional control samples were performed in which reaction mixtures contained primers alone (no template).

[1] = tested on: Shigella invasion of HeLa cells; assay: Shigella invasion of HeLa cells; format: cell-based, Shigella flexneri strain M90T; details: bacteria grown with compound before addition to cells
Method: We assayed the effect of Compound 1 on the interaction of Shigella with cultured human epithelial cells. Shigella flexneri strain M90T was grown to maximize type III secretion system [Shigella] expression. Shigella was assayed for invasion of HeLa cells. The bacterial cells were grown in the presence of Compound 1 prior to addition to tissue culture wells. Invasion assays involved, briefly, incubation of Shigella cells in tissue culture wells, washing to remove non-adherent bacteria, addition of gentamycin to kill bacterial cells that had not invaded the epithelial cells, trypsin treatment to dislodge epithelial cells, serial dilutions and plating on LB to enumerate bacterial colonies

RhaS = RhaS (Escherichia coli, UniProt P09377); assay: % Inhibition at 82.5 μM, RhaS; format: cell-based, E. coli
icsA = assay: Shigella gene expression qRT-PCR, icsA; format: cell-based, S. flexneri; details: for Average ΔΔCt / Ct / RQ (2^−ΔΔCt) / ΔΔCt^1 (normalized to gapA) / ΔΔCt^2 (normalized to rrsA): icsA, example data
Method: as §1

Sequence of Rns (P16114 whole entry, the tested form may be a part): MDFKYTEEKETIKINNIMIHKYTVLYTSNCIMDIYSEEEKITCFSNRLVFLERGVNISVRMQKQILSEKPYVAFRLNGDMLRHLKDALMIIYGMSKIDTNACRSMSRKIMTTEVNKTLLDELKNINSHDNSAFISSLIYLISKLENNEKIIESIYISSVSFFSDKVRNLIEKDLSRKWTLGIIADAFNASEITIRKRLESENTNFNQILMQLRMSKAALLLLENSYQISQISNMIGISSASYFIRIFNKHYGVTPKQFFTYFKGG
Sequence of RhaS (P09377 whole entry): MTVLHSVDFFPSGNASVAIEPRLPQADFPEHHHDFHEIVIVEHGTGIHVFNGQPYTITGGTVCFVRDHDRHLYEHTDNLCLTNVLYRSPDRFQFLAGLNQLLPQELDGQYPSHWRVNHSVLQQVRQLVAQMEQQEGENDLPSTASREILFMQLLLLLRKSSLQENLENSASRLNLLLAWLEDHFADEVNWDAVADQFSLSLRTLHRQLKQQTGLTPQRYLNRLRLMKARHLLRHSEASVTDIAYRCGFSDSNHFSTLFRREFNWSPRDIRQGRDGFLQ

CCCCN1C=C(c2ccc3ccccc3n2)C(C[N+](=O)[O-])c2ccccc21 (centres unmarked) [Compound 1, 1-butyl-4-(nitromethyl)-3-quinolin-2-yl-4H-quinoline]
inhibition of in vivo activation by Rns (Rns): similar, if not greater, extent than full-length RhaS
reduction of ipaB expression (ipaB; 40 μM inhibitor, P<0.05): up to 4 fold
Average ΔΔCt (ipaB; SE-1 20 μM): 1.11
Ct (ipaB; SE-1 20 μM): 25.57
RQ (2^−ΔΔCt) (ipaB; SE-1 20 μM): 0.46
ΔΔCt^1 (normalized to gapA) (ipaB; SE-1 20 μM): 0.62
ΔΔCt^2 (normalized to rrsA) (ipaB; SE-1 20 μM): 1.61
Average ΔΔCt (ipaB; SE-1 40 μM): 2.20
Ct (ipaB; SE-1 40 μM): 26.23
RQ (2^−ΔΔCt) (ipaB; SE-1 40 μM): 0.22
ΔΔCt^1 (normalized to gapA) (ipaB; SE-1 40 μM): 1.85
ΔΔCt^2 (normalized to rrsA) (ipaB; SE-1 40 μM): 2.54
ability of Shigella to invade human epithelial cells [1]: reduced
% Inhibition at 82.5 μM RhaS (RhaS): 90%
icsA expression level (icsA; 20 μM inhibitor, 37° C.): essentially unchanged
icsA expression level (icsA; 40 μM inhibitor, P<0.05): significantly reduced
Average ΔΔCt (icsA; SE-1 20 μM): 0.04
Ct (icsA; SE-1 20 μM): 27.88
RQ (2^−ΔΔCt) (icsA; SE-1 20 μM): 0.97
ΔΔCt^1 (normalized to gapA) (icsA; SE-1 20 μM): −0.46
ΔΔCt^2 (normalized to rrsA) (icsA; SE-1 20 μM): 0.54
Average ΔΔCt (icsA; SE-1 40 μM): 1.17
Ct (icsA; SE-1 40 μM): 28.59
RQ (2^−ΔΔCt) (icsA; SE-1 40 μM): 0.44
ΔΔCt^1 (normalized to gapA) (icsA; SE-1 40 μM): 0.82
ΔΔCt^2 (normalized to rrsA) (icsA; SE-1 40 μM): 1.52
